What was measured:
[1] = molecular target: T1, Human Factor XIIa (hFXIIa) (Homo sapiens, UniProt P00748); experiment: Determination of Human Factor XIIa (hFXIIa) inhibition, fluorogenic substrate IC50 assay; assay type: biochemical; details: fluorogenic substrate H-DPro-Phe-Arg-AFC at Km, 25° C., read-out: Human FXIIa IC50
T1 construct: purchased Enzyme Research Laboratories
T1 sequence (P00748 373-615 limits assumed): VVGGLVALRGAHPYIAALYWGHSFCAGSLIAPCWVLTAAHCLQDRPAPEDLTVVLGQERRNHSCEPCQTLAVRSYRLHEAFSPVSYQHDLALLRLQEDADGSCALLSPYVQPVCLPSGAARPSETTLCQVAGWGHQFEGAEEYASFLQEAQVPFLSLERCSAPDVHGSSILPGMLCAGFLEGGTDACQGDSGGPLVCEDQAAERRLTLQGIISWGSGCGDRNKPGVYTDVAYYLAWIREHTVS
T1 sequence (P00748 20-372 partner limits assumed): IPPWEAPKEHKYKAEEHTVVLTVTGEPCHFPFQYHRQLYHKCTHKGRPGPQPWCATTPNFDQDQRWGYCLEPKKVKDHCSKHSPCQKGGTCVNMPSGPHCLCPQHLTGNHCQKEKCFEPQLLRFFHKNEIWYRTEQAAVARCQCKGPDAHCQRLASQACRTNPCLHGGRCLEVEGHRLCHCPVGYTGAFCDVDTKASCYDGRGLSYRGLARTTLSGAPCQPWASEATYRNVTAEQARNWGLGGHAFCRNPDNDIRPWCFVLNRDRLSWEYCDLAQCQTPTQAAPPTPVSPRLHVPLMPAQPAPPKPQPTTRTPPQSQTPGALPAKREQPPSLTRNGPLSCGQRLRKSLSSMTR
Description: Determination of Human Factor XIIa (hFXIIa) inhibition
The Km for the cleavage of the substrate by hFXIIa was determined by standard transformation of the Michaelis-Menten equation, with subsequent inhibition assays performed at substrate Km concentration.

FXa = FXa (Homo sapiens, UniProt P00742); experiment: Related protease inhibition: FXa, fluorogenic substrate; assay type: biochemical; details: fluorogenic substrate at Km, 25° C.; H1-H3 = % activity at 40 μM
Sequence of FXa (P00742 235-488 limits assumed): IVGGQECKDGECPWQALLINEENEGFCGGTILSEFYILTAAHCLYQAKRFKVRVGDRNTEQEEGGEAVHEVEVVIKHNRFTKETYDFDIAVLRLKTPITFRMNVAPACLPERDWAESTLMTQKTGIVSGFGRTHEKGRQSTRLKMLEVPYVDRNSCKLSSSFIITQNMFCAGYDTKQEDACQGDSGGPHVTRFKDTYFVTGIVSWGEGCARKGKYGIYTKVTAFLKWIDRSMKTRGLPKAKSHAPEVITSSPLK
Sequence of FXa (P00742 41-179 partner limits assumed): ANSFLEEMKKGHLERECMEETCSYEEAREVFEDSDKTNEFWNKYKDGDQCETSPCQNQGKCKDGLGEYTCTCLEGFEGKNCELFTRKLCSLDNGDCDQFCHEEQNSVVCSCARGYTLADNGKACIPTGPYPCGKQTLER
Description: Human serine protease enzyme Plasma Kallikrein, KLK1, FXa, Plasmin, Thrombin and Trypsin were assayed for enzymatic activity using an appropriate fluorogenic substrate at Km concentration, FXIa at fixed substrate concentration of 100 μM and various concentrations of the test compound.

IC50 [1] [nM]	IC50 (FXa) [nM]	SMILES
100 to 300	> 40000	O=C(NCC1CC1)c1nn(-c2cccc(Cl)c2)c2c1CCN(c1cc3c(cc1F)CCN(CCO)C3)C2=O [Example 1123, 1-(3-chlorophenyl)-N-(cyclopropylmethyl)-6-(6-fluoro-2-(2-hydroxyethyl)-1,2,3,4-tetrahydroisoquinolin-7-yl)-7-oxo-4,5,6,7-tetrahydro-1H-pyrazolo[3,4-c]pyridine-3-carboxamide]
10 to 100	10000 to 40000	Cc1cc(CNC(=O)c2nn(-c3cccc(Cl)c3)c3c2CCN(c2cc4c(cc2F)CCN(CCO)C4)C3=O)[nH]n1 [Example 1125, 1-(3-chlorophenyl)-6-(6-fluoro-2-(2-hydroxyethyl)-1,2,3,4-tetrahydroisoquinolin-7-yl)-N-((3-methyl-1H-pyrazol-5-yl)methyl)-7-oxo-4,5,6,7-tetrahydro-1H-pyrazolo[3,4-c]pyridine-3-carboxamide]
10 to 100	10000 to 40000	Cc1cncc(CNC(=O)c2nn(-c3cccc(Cl)c3)c3c2CCN(c2ccc4c(c2)CN(CCO)CC4)C3=O)c1 [Example 1126, 1-(3-chlorophenyl)-6-(2-(2-hydroxyethyl)-1,2,3,4-tetrahydroisoquinolin-7-yl)-N-((5-methylpyridin-3-yl)methyl)-7-oxo-4,5,6,7-tetrahydro-1H-pyrazolo[3,4-c]pyridine-3-carboxamide]
10 to 100	10000 to 40000	O=C(NCc1cc(C2CC2)n[nH]1)c1nn(-c2cccc(Cl)c2)c2c1CCN(c1ccc3c(c1)CN(CCO)CC3)C2=O [Example 1127, 1-(3-chlorophenyl)-N-((3-cyclopropyl-1H-pyrazol-5-yl)methyl)-6-(2-(2-hydroxyethyl)-1,2,3,4-tetrahydroisoquinolin-7-yl)-7-oxo-4,5,6,7-tetrahydro-1H-pyrazolo[3,4-c]pyridine-3-carboxamide]
10 to 100	3000 to 10000	Cc1ccncc1CNC(=O)c1nn(-c2cccc(Cl)c2)c2c1CCN(c1ccc3c(c1)CN(C)CC3)C2=O [Example 1129, 1-(3-chlorophenyl)-6-(2-methyl-1,2,3,4-tetrahydroisoquinolin-7-yl)-N-((4-methylpyridin-3-yl)methyl)-7-oxo-4,5,6,7-tetrahydro-1H-pyrazolo[3,4-c]pyridine-3-carboxamide]
10 to 100	10000 to 40000	O=C(NCc1ncccc1F)c1nn(-c2cccc(Cl)c2)c2c1CCN(c1ccc3c(c1)CN(CCO)CC3)C2=O [Example 1130, 1-(3-chlorophenyl)-N-((3-fluoropyridin-2-yl)methyl)-6-(2-(2-hydroxyethyl)-1,2,3,4-tetrahydroisoquinolin-7-yl)-7-oxo-4,5,6,7-tetrahydro-1H-pyrazolo[3,4-c]pyridine-3-carboxamide]
10 to 100	10000 to 40000	Cn1ccc(CNC(=O)c2nn(-c3cccc(Cl)c3)c3c2CCN(c2ccc4c(c2)CN(CCO)CC4)C3=O)n1 [Example 1132, 1-(3-chlorophenyl)-6-(2-(2-hydroxyethyl)-1,2,3,4-tetrahydroisoquinolin-7-yl)-N-((1-methyl-1H-pyrazol-3-yl)methyl)-7-oxo-4,5,6,7-tetrahydro-1H-pyrazolo[3,4-c]pyridine-3-carboxamide]
10 to 100	10000 to 40000	Cc1ccncc1CNC(=O)c1nn(-c2cccc(Cl)c2)c2c1CCN(c1cc3c(cc1F)CCN(CCO)C3)C2=O [Example 1134, 1-(3-Chlorophenyl)-6-(6-fluoro-2-(2-hydroxyethyl)-1,2,3,4-tetrahydroisoquinolin-7-yl)-N-((4-methylpyridin-3-yl)methyl)-7-oxo-4,5,6,7-tetrahydro-1H-pyrazolo[3,4-c]pyridine-3-carboxamide]
10 to 100	1000 to 3000	COc1ccc(CNC(=O)c2nn(-c3cccc(Cl)c3)c3c2CCN(c2ccc4c(c2)CN(C)CC4)C3=O)cn1 [Example 1135, 1-(3-chlorophenyl)-N-((6-methoxypyridin-3-yl)methyl)-6-(2-methyl-1,2,3,4-tetrahydroisoquinolin-7-yl)-7-oxo-4,5,6,7-tetrahydro-1H-pyrazolo[3,4-c]pyridine-3-carboxamide]
10 to 100	10000 to 40000	O=C(NCc1cncc(F)c1)c1nn(-c2cccc(Cl)c2)c2c1CCN(c1ccc3c(c1)CN(CCO)CC3)C2=O [Example 1137, 1-(3-chlorophenyl)-N-((5-fluoropyridin-3-yl)methyl)-6-(2-(2-hydroxyethyl)-1,2,3,4-tetrahydroisoquinolin-7-yl)-7-oxo-4,5,6,7-tetrahydro-1H-pyrazolo[3,4-c]pyridine-3-carboxamide]
10 to 100	3000 to 10000	COc1ccc(CNC(=O)c2nn(-c3cccc(Cl)c3)c3c2CCN(c2ccc4c(c2)CN(CCO)CC4)C3=O)cn1 [Example 1138, 1-(3-chlorophenyl)-6-(2-(2-hydroxyethyl)-1,2,3,4-tetrahydroisoquinolin-7-yl)-N-((6-methoxypyridin-3-yl)methyl)-7-oxo-4,5,6,7-tetrahydro-1H-pyrazolo[3,4-c]pyridine-3-carboxamide]
10 to 100	10000 to 40000	Cc1cccc(CNC(=O)c2nn(-c3cccc(Cl)c3)c3c2CCN(c2ccc4c(c2)CN(CCO)CC4)C3=O)n1 [Example 1139, 1-(3-chlorophenyl)-6-(2-(2-hydroxyethyl)-1,2,3,4-tetrahydroisoquinolin-7-yl)-N-((6-methylpyridin-2-yl)methyl)-7-oxo-4,5,6,7-tetrahydro-1H-pyrazolo[3,4-c]pyridine-3-carboxamide]
10 to 100	3000 to 10000	CCN1CCc2ccc(N3CCc4c(C(=O)NCc5cnccc5C)nn(-c5cccc(Cl)c5)c4C3=O)cc2C1 [Example 1140, 1-(3-chlorophenyl)-6-(2-ethyl-1,2,3,4-tetrahydroisoquinolin-7-yl)-N-((4-methylpyridin-3-yl)methyl)-7-oxo-4,5,6,7-tetrahydro-1H-pyrazolo[3,4-c]pyridine-3-carboxamide]
10 to 100	3000 to 10000	COc1cncc(CNC(=O)c2nn(-c3cccc(Cl)c3)c3c2CCN(c2ccc4c(c2)CN(CCO)CC4)C3=O)c1 [Example 1141, 1-(3-chlorophenyl)-6-(2-(2-hydroxyethyl)-1,2,3,4-tetrahydroisoquinolin-7-yl)-N-((5-methoxypyridin-3-yl)methyl)-7-oxo-4,5,6,7-tetrahydro-1H-pyrazolo[3,4-c]pyridine-3-carboxamide]
100 to 300	> 40000	O=C(NCC1CC1(F)F)c1nn(-c2cccc(Cl)c2)c2c1CCN(c1ccc3c(c1)CN(CCO)CC3)C2=O (centres unmarked) [Example 1142, 1-(3-chlorophenyl)-N-((2,2-difluorocyclopropyl)methyl)-6-(2-(2-hydroxyethyl)-1,2,3,4-tetrahydroisoquinolin-7-yl)-7-oxo-4,5,6,7-tetrahydro-1H-pyrazolo[3,4-c]pyridine-3-carboxamide]
100 to 300	3000 to 10000	O=C(NCC1CC1)c1nn(-c2cccc(Cl)c2)c2c1CCN(c1ccc3c(c1)CN(CCO)CC31CC1)C2=O [Example 1143, 1-(3-chlorophenyl)-N-(cyclopropylmethyl)-6-(2′-(2-hydroxyethyl)-2′,3′-dihydro-1′H-spiro[cyclopropane-1,4′-isoquinolin]-7′-yl)-7-oxo-4,5,6,7-tetrahydro-1H-pyrazolo[3,4-c]pyridine-3-carboxamide]
10 to 100	1000 to 3000	Cc1ccncc1CNC(=O)c1nn(-c2cccc(Cl)c2)c2c1CCN(c1ccc3c(c1)CN(CCO)CC31CC1)C2=O [Example 1144, 1-(3-Chlorophenyl)-6-(2′-(2-hydroxyethyl)-2′,3′-dihydro-1′H-spiro[cyclopropane-1,4′-isoquinolin]-7′-yl)-N-((4-methylpyridin-3-yl)methyl)-7-oxo-4,5,6,7-tetrahydro-1H-pyrazolo[3,4-c]pyridine-3-carboxamide]
100 to 300	10000 to 40000	C[C@@H](NC(=O)c1nn(-c2cccc(Cl)c2)c2c1CCN(c1ccc3c(c1)CN(CCO)CC3)C2=O)c1cccnc1 [Example 1145, (R)-1-(3-chlorophenyl)-6-(2-(2-hydroxyethyl)-1,2,3,4-tetrahydroisoquinolin-7-yl)-7-oxo-N-(1-(pyridin-3-yl)ethyl)-4,5,6,7-tetrahydro-1H-pyrazolo[3,4-c]pyridine-3-carboxamide]
10 to 100	10000 to 40000	O=C(NCc1ccn(C2CC2)n1)c1nn(-c2cccc(Cl)c2)c2c1CCN(c1ccc3c(c1)CN(CCO)CC3)C2=O [Example 1146, 1-(3-chlorophenyl)-N-((1-cyclopropyl-1H-pyrazol-3-yl)methyl)-6-(2-(2-hydroxyethyl)-1,2,3,4-tetrahydroisoquinolin-7-yl)-7-oxo-4,5,6,7-tetrahydro-1H-pyrazolo[3,4-c]pyridine-3-carboxamide]

Source: patent US20260132132A1, “3A,4,5,6-TETRAHYDRO-1 H-PYRAZOLO[3,4-C]PYRIDIN-7(7AH)-ONE DERIVATIVES AS FACTOR XIIA INHIBITORS” (KALVISTA PHARMACEUTICALS LIMITED, priority 2022, published 2026)
